Experimental data from article PMC4529401 (Pharmaceutical research, 2015).
Where two headings read alike, the source gives them in different places.

How the values were obtained:
[1] = molecular target: T1, human OCT2 (Homo sapiens, UniProt O15244); experiment: Literature kinetic parameters for OCT2-mediated transport, cells; assay type: cell-based; details: median of the values in Table I
T1 sequence (O15244 1-555): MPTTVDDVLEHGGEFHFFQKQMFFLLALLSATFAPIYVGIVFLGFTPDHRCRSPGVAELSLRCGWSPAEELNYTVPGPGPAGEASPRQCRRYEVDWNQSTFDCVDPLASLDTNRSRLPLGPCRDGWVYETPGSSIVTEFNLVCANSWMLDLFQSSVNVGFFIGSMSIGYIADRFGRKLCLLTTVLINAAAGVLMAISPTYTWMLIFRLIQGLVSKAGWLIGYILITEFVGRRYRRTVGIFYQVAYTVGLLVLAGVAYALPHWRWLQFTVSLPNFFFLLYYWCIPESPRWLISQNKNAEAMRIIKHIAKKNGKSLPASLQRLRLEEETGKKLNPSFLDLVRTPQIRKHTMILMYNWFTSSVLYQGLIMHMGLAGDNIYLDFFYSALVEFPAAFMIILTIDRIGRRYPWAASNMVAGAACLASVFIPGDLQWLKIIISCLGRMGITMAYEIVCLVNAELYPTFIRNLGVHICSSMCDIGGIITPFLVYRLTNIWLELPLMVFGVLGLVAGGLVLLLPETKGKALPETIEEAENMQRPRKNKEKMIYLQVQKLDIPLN

[2] = molecular target: T1, human OCT2; details: ref Morales & Wright, unpublished; cited from earlier work
[3] = molecular target: T1, human OCT2; experiment: Transport of TEA and MPP in CHO cells that stably expressed human OCT2; assay type: cell-based; details: for true Kt for OCT2-mediated transport (suggested): authors' estimate in the discussion; for Ktapp of uptake: 30 sec uptakes
[4] = OCT2 knockdown cells (shRNA #6), paired studies, three (TEA) or four (MPP)
[5] = control (fully expressing) cells, paired studies, three (TEA) or four (MPP)
[6] = control (unshaken), 96 well plate, n=3
[7] = shaken (reciprocal, 13 Hz), 96 well plate, n=3

## CN(C)C(=N)N=C(N)N [Metformin]
[1]
  median Jmax: ~ 350 pmol cm^−2 min^−1
[2]
  Jmax: 265 pmol cm^−2 min^−1
  Ktapp: 378 µM
[3]
  true Kt for OCT2-mediated transport (suggested): ~ 1000 µM

## C[n+]1ccc(-c2ccccc2)cc1 [MPP, 1-Methyl-4-phenylpyridinium]
[3]; 24 well plate, flat-bed orbital shaker 300 rpm (5 Hz), [3H] substrate, P < 0.05
  increase of 30 sec uptake by shaking: 50%
[3]; [4]
  Jmax: 6.1 ± 1.2 pmol cm^−2 min^−1
  apparent Kt: 3.8 ± 0.5 µM
[3]; OCT2 knockdown cells, six paired experiments (n = 6)
  Ktapp: 3.3 ± 0.9 µM
[3]; Table I, present study
  Jmax: 35 pmol cm^−2 min^−1
  Ktapp: 9 µM
[3]
  true Kt for OCT2-mediated transport (suggested): 1 to 2 µM
[3]; calculated from present study Jmax and a 1500 µm UWL
  Winne ‘bias’: 7 µM
[3]; cells with reduced OCT2 expression (RNAi)
  maximum transport rates, fold lower than in parental OCT2-expressing cells: 11 fold
[3]; [5]
  Jmax: 64.7 ± 16.6 pmol cm^−2 min^−1
  apparent Kt: 16.6 ± 4.0 µM
[3]; [6]
  Ktapp of uptake: 6.5 ± 0.4 µM
  Jmax: 35.4 ± 1.4 pmol cm^−2 min^−1
[3]; intercept of the Jmax vs Ktapp relationship (linear regression)
  estimated true Kt: 1.8 ± 1.6 µM
[3]; knockdown (shRNA #6) vs control cells, […] [14C]TEA plus 1.0 nM [3H]MPP
  reduction in the 15 sec uptake in OCT2 knockdown cells: 55%
[3]; knockdown vs control cells
  reduction of Jmax in OCT2 knockdown cells: 90%
[3]; [7]
  Ktapp of uptake: 4.5 ± 0.5 µM
  Jmax: 37.4 ± 2.5 pmol cm^−2 min^−1
